In US20250042918A1, “COMPOUNDS” (Fundación Del Sector Públlco Estatal Centro Nacional De …, priority 2021, published 2025):

Assays:
Format in all cases: cell-based
[1] = system: BT-474; test: In vitro potency against breast cancer cell lines (CellTiter Glo); details: Homo sapiens, BT-474, 72 h; read-out: absolute IC50 BT-474
Procedure: (§1) To prepare the complete medium FBS and appropriate additives were added according to the information sheet provided by the vendor and mixed gently. The cell name and complete medium and passage number marked on the flask were checked, and the culture medium removed and discarded using a vacuum pump. […] 3.0 ml of Trypsin-EDTA solution was added to the flask and the cells observed under an inverted microscope until cell layer is dispersed. 8.0 ml of complete growth medium was added and the cells aspirated by gently pipetting. The cell suspension was transferred to a centrifuge tube and centrifuged at 800-1000 rpm for 3-5 minutes. The supernatant was discarded using a vacuum pump, and an appropriate volume of complete medium added. The cell pellet was suspended by gently pipetting, and the cell numbers counted with Vi-cell XR and the cells adjusted to appropriate density. 100 μL of cell suspension to 96-well opaque-walled clear bottom plates was added according to the planned plate layout and the plates placed in the CO2 incubator overnight.
(§2) c. […] Meanwhile the day 0 plate was measured by Cell TiterGlo as listed below.
(§3) d. Cells were incubated with the compounds for 72 h at 5% CO2, 37° C.
(§4) The CellTiter-Glo buffer was thawed and equilibrated to room temperature prior to use. The lyophilized CellTiter-Glo substrate was equilibrated to room temperature prior to use. The appropriate volume of CellTiter-Glo buffer was transferred into the amber bottle containing CellTiter-Glo substrate to reconstitute the lyophilized enzyme/substrate mixture, thereby forming the CellTiter-Glo reagent. Mixing was carried out by gently vortexing, swirling or by inverting the contents to obtain a homogeneous solution, the CellTiter-Glo substrate going into solution easily in less than one minute.
(§5) The plate and its contents were equilibrated to room temperature for approximately 30 minutes, after which 100 μL of CellTiter-Glo reagent was added to the assay plate by Multidrop Combi instrument and the contents mixed for 10 minutes on an orbital shaker to induce cell lysis. The plate was allowed to incubate at room temperature for 10 minutes to stabilize luminescent signal and the clear bottom pasted with white back seal and the luminescence recorded with Enspire with the settings: Luminescence, measurement time 0.1 ms.

[2] = system: HCC1143; test: as above; details: Homo sapiens, HCC1143, 72 h; read-out: absolute IC50 HCC1143
Procedure: as §1, §2, §3, §4, §5

[3] = system: T-47D; test: as above; details: Homo sapiens, T47D, 72 h; read-out: absolute IC50 T-47D
Procedure: as §1, §2, §3, §4, §5

[4] = system: HCC1954; test: as above; details: Homo sapiens, HCC1954, 72 h; read-out: absolute IC50 HCC1954
Procedure: as §1, §2, §3, §4, §5

[5] = system: MDA-MB-361; test: as above; details: Homo sapiens, MDA-MB-361, 72 h; read-out: absolute IC50 MDA-MB-361
Procedure: as §1, §2, §3, §4, §5

[6] = system: HCC38; test: as above; details: Homo sapiens, HCC38, 72 h; read-out: absolute IC50 HCC38
Procedure: as §1, §2, §3, §4, §5

[7] = system: HL-60; test: In vitro potency against leukemia cell lines (CellTiter Glo); details: Homo sapiens, 72 hours, read-out: absolute IC50 HL-60
Procedure: as §1, §2, §3, §5
(§6) In all cases, the incubation time was 72 hours and the cell lines were grown as a suspension. The seeding density was […] in a 96 well plate.

[8] = system: OCI-M1; test: as above; details: 72 hours, read-out: absolute IC50 OCI-M1
Procedure: as §1, §2, §3, §5, §6

[9] = system: KG-1; test: as above; details: Homo sapiens, 72 hours, read-out: absolute IC50 KG-1
Procedure: as §1, §2, §3, §5, §6

[10] = system: MV-4-11; test: as above; details: Homo sapiens, MV4-11; 72 hours; read-out: absolute IC50 MV-4-11
Procedure: as §1, §2, §3, §5, §6

[11] = system: Molm-13; test: as above; details: Homo sapiens, 72 hours, read-out: absolute IC50 Molm-13
Procedure: as §1, §2, §3, §5, §6

[12] = system: Jeko-1; test: as above; details: Homo sapiens, 72 hours, read-out: absolute IC50 JeKo-1
Procedure: as §1, §2, §3, §5, §6

[13] = system: Kasumi-3; test: as above; details: 72 hours, read-out: absolute IC50 Kasumi-3
Procedure: as §1, §2, §3, §5, §6

For `Cn1c(=O)n(-c2ccc(C(C)(C)C#N)cc2)c2c3cc(-c4cnc5ccccc5c4)ccc3ncc21` [Dactolisib, dactolisib], the IC50 [1] was 0.114 µM, the IC50 [2] was 0.145 µM and the IC50 [3] was 0.0565 µM. For the same molecule, the IC50 [4] was 0.0145 µM, the IC50 [5] was 0.0301 µM and the IC50 [6] was 0.0664 µM. The IC50 [7] was 0.43 µM, the IC50 [8] was 0.125 µM and the IC50 [9] was 0.09 µM. For the same molecule, the IC50 [10] was 0.0365 µM, the IC50 [11] was 0.0443 µM and the IC50 [12] was 0.0678 µM. It also gave an IC50 [13] of 0.105 µM.
